Measurements published in PMC7127735 (Bioorganic & Medicinal Chemistry, 2011).
pEC50: −log10 of the molar value.

What was measured:
[1] = system: HEL cells; test: Minimum cytotoxic concentration, alteration of cell morphology in HEL cells; type: cell-based, human; settings: for Minimum cytotoxic concentration (HEL): Table 2, microscopically detectable alteration of cell morphology; for Minimum cytotoxic concentration (MCC) (HEL): Table 1, microscopically detectable alteration of normal cell morphology
[2] = system: TK+ VZV strain YS; test: Plaque reduction, TK+ VZV strain YS in HEL cells; type: cell-based, varicella-zoster virus; settings: Human alphaherpesvirus 3, HEL, read-out: EC50 TK+ VZV strains YS
[3] = system: HIV-1; settings: cited from earlier work

pEC50 [2] | SMILES | Minimum cytotoxic concentration (HEL) [1] | Minimum cytotoxic concentration (MCC) (HEL) [1] | activity against HIV-1 in PBM cells [3]
– | Nc1nc2c(ncn2COCCO)c(=O)[nH]1 [Acyclovir, reference compound] | >400 µM | – | –
7.96 | O=c1[nH]c(=O)n([C@H]2C[C@H](O)[C@@H](CO)O2)cc1/C=C/Br [Brivudin, reference compound] | ⩾300 μM | – | –
– | C[C@H](NP(=O)(OC[C@H]1O[C@@H](n2cc(I)c(=O)[nH]c2=O)C(F)(F)[C@@H]1O)Oc1ccccc1)C(=O)OCc1ccccc1 (stereo partly drawn) [Compound 16, 2′-Deoxy-2′,2′-difluoro-D-5-iodouridine 5′-O-phenyl-(benzoxy-alaninyl)-phosphate] | – | >100 µM | –
– | COC(=O)[C@H](C)NP(=O)(OC[C@H]1O[C@@H](n2cc(I)c(=O)[nH]c2=O)C(F)(F)[C@@H]1O)Oc1ccccc1 (stereo partly drawn) [Compound 17, 2′-Deoxy-2′,2′-difluoro-D-5-iodouridine 5′-O-phenyl-(methoxy-alaninyl)-phosphate] | >50 µM | >100 µM | –
– | C[C@H](NP(=O)(OC[C@H]1O[C@@H](n2cc(Br)c(=O)[nH]c2=O)C(F)(F)[C@@H]1O)Oc1ccccc1)C(=O)OCc1ccccc1 (stereo partly drawn) [Compound 20, 2′-Deoxy-2′,2′-difluoro-D-5-bromouridine 5′-O-phenyl-(benzoxy-alaninyl)-phosphate] | >50 µM | >100 µM | –
– | C[C@H](NP(=O)(OC[C@H]1O[C@@H](n2cc(Cl)c(=O)[nH]c2=O)C(F)(F)[C@@H]1O)Oc1ccccc1)C(=O)OCc1ccccc1 (stereo partly drawn) [Compound 21, 2′-Deoxy-2′,2′-difluoro-D-5-chlorouridine 5′-O-phenyl-(benzoxy-alaninyl)-phosphate] | >50 µM | >100 µM | –
– | Nc1nc(O)c2ncn(COC(CO)CO)c2n1 [Ganciclovir, reference compound] | – | >100 µM | –
– | Nc1ncnc2c1ncn2C1OC(CO)C(O)C1(F)F (stereo not drawn) [adenine derivative] | – | – | 3.4 µM
